Measurements reported in US20260062387A1, “SALT-INDUCIBLE KINASE INHIBITOR COMPOUND AND PHARMACEUTICAL COMPOSITION INCLUDING THE SAME” (MITSUBISHI TANABE PHARMA CORPORATION, priority 2023, published 2026).

Key:
Assay type in all cases: biochemical
[1] = molecular target: GST-tagged SIK1 (Homo sapiens (Human), UniProt P57059); test: SIK1 inhibition test (ADP-Glo Max Assay); details: enzyme 20 nM, AMARA Peptide 200 μM, ATP 1 mM, 2 hours room temperature
Procedure, shortened: (§1)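 GST-tagged human SIK1, SIK2 and SIK3 at 20 nM, 3 nM and 100 nM final in Tris pH 7.5 buffer, with AMARA peptide (200 μM for SIK1/SIK2, 100 μM for SIK3), 1 mM ATP and 5 mM MgCl2. Reaction ran 2 h at room temperature. ADP read by ADP-Glo Max luminescence, and IC50 fitted from 16 concentrations.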

[2] = molecular target: GST-tagged SIK2 (Homo sapiens (Human), UniProt Q9H0K1); test: SIK2 inhibition test (ADP-Glo Max Assay); details: enzyme 3 nM, AMARA Peptide 200 μM, ATP 1 mM, 2 hours room temperature
Procedure, shortened: as §1

[3] = molecular target: GST-tagged SIK3 (Homo sapiens (Human), UniProt Q9Y2K2); test: SIK3 inhibition test (ADP-Glo Max Assay); details: enzyme 100 nM, AMARA Peptide 100 μM, ATP 1 mM, 2 hours room temperature
Procedure, shortened: as §1

GST-tagged SIK1, sequence (P57059 whole entry): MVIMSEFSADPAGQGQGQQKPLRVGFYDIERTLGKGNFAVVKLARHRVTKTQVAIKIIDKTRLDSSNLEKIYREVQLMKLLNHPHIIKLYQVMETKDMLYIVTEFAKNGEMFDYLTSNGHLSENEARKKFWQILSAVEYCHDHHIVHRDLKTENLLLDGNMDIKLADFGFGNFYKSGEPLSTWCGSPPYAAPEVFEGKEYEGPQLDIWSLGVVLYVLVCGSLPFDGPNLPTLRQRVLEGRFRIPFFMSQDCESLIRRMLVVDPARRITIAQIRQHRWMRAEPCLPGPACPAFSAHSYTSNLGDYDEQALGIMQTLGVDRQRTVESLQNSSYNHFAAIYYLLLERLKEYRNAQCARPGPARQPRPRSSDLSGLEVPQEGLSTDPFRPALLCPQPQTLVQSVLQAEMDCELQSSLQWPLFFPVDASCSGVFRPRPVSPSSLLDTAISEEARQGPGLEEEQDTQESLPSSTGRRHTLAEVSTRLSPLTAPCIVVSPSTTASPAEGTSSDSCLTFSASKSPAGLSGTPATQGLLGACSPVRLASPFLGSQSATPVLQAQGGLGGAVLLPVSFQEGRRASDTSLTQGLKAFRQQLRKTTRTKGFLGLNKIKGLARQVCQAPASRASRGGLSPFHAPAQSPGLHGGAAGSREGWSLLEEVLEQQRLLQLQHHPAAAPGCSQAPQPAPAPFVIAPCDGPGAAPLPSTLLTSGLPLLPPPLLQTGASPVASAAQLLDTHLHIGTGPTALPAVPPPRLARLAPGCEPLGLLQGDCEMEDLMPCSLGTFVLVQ
GST-tagged SIK3, sequence (Q9Y2K2 whole entry): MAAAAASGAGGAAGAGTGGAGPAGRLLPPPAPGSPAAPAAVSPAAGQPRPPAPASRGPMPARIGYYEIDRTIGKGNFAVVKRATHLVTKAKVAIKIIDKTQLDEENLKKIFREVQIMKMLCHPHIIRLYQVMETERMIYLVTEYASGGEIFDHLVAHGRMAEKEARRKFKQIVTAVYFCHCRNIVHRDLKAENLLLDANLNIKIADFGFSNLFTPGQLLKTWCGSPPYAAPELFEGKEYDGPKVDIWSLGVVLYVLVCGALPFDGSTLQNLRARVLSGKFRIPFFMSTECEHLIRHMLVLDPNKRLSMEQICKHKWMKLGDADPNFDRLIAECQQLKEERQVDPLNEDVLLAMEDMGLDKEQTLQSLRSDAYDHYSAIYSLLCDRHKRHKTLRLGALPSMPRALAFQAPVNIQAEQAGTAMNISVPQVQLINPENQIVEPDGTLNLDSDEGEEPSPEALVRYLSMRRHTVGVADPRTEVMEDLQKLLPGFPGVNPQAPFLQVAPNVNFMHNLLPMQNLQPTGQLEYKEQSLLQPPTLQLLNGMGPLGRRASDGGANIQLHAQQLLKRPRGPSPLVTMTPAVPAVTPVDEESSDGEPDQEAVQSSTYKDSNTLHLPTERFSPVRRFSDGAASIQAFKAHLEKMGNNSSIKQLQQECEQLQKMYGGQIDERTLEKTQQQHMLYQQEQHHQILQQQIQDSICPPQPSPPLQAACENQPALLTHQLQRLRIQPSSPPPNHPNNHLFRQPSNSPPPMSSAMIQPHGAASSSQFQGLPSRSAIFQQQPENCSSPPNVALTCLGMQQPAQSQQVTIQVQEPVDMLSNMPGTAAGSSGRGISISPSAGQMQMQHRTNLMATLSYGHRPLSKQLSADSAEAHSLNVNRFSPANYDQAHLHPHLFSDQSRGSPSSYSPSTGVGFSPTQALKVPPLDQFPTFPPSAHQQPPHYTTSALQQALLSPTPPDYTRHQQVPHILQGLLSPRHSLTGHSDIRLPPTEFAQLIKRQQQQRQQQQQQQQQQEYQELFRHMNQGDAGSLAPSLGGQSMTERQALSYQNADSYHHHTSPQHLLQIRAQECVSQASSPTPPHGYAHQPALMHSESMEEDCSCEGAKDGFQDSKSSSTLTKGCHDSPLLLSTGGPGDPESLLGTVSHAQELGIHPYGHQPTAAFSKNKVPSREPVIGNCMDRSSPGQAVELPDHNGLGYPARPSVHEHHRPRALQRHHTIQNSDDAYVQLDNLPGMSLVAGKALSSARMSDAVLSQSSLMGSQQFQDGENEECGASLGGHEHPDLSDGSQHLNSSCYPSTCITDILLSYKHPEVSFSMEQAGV
GST-tagged SIK2, sequence (Q9H0K1 whole entry): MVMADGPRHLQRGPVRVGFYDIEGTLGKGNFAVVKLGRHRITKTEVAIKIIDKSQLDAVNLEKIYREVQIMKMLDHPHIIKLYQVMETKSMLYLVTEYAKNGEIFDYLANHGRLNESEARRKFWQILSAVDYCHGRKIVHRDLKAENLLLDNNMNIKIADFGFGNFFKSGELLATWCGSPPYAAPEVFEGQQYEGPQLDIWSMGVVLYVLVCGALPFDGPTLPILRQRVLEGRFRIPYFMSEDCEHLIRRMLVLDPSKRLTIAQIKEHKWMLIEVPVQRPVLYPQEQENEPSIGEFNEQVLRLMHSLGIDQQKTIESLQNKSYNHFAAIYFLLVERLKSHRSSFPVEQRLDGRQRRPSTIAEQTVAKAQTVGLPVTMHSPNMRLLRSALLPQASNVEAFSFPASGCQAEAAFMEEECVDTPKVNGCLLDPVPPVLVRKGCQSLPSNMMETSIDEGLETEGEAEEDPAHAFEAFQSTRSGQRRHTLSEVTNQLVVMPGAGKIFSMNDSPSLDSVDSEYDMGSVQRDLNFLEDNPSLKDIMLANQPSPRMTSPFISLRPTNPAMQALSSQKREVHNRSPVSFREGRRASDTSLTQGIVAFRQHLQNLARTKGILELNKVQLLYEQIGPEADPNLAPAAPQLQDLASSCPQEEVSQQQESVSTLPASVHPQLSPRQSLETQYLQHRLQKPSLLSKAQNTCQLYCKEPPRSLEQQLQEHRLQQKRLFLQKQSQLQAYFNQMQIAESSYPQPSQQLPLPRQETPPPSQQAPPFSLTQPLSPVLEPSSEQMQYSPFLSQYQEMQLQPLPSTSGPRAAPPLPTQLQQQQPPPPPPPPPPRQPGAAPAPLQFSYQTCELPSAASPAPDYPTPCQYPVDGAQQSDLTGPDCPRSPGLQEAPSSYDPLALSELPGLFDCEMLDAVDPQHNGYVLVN

Compound | IC50 [1] [nM] | IC50 [2] [nM] | IC50 [3] [nM]
COc1cc(-c2c3c(C(F)F)cc(-c4cnn(CC(=O)N(C)C)c4)cc3nn2C)cc(OC(F)F)c1C(=O)N1CC(O)(C(F)(F)F)C1 [Example 60, 2-[4-[3-[3-(difluoromethoxy)-4-[3-hydroxy-3-(trifluoromethyl)azetidin-1-carbonyl]-5-methoxyphenyl]-4-(difluoromethyl)-2-methylindazol-6-yl]pyrazol-1-yl]-N,N-dimethylacetamide] | 6.9 | 4.8 | 4.9
COc1cc(-c2c3c(C(F)F)cc(-c4cnn(CC(=O)N(C)C)c4)cc3nn2C)cc(OC(F)F)c1C(=O)N1CC(O)(C(F)F)C1 [Example 61, 2-[4-[3-[3-(difluoromethoxy)-4-[3-(difluoromethyl)-3-hydroxyazetidin-1-carbonyl]-5-methoxyphenyl]-4-(difluoromethyl)-2-methylindazol-6-yl]pyrazol-1-yl]-N,N-dimethylacetamide] | 4.7 | 7.4 | 7.4
COc1cc(-c2c3c(OC(F)F)cc(-c4cn(C)nn4)cc3nn2C)cc(OC(F)F)c1C(=O)N1CC(O)(C(F)F)C1 [Example 63, [2-(difluoromethoxy)-4-[4-(difluoromethoxy)-2-methyl-6-(1-methyltriazol-4-yl)indazol-3-yl]-6-methoxyphenyl]-[3-(difluoromethyl)-3-hydroxyazetidin-1-yl]methanone] | 7.5 | 4.3 | 9.7
COc1cc(-c2c3c(C(F)F)cc(-c4cnn(CCS(C)(=O)=O)c4)cc3nn2C)cc(OC(F)F)c1C(=O)N1CC(O)(C(F)F)C1 [Example 66, [2-(difluoromethoxy)-4-[4-(difluoromethyl)-2-methyl-6-[1-(2-methylsulfonylethyl)pyrazol-4-yl)indazol-3-yl]-6-methoxyphenyl]-[3-(difluoromethyl)-3-hydroxyazetidin-1-yl]methanone] | 11.4 | 14.1 | 5.7
COc1cc(-c2c3c(C(F)F)cc(-c4cnn(C[C@H](C)O)c4)cc3nn2C)cc(OC(F)F)c1C(=O)N1CC(O)(C(F)F)C1 [Example 67, [2-(difluoromethoxy)-4-[4-(difluoromethyl)-6-[1-[(2S)-2-hydroxypropyl]pyrazol-4-yl]-2-methylindazol-3-yl]-6-methoxyphenyl]-[3-(difluoromethyl)-3-hydroxyazetidin-1-yl]methanone] | 8.5 | 12.7 | 4.8
COc1cc(-c2c3c(C(F)F)cc(-c4cn[nH]c4)cc3nn2C)cc(OC(F)F)c1C(=O)N1CC(O)(C(F)(F)F)C1 [Example 68, [2-(difluoromethoxy)-4-[4-(difluoromethyl)-2-methyl-6-(1H-pyrazol-4-yl)indazol-3-yl]-6-methoxyphenyl]-[3-hydroxy-3-(trifluoromethyl)azetidin-1-yl]methanone] | 9.4 | 14.2 | 2.5
COc1cc(-c2c3c(C(F)F)cc(-c4cn[nH]c4)cc3nn2C)cc(OC(F)F)c1C(=O)N1CC(O)(C(F)F)C1 [Example 69, [2-(difluoromethoxy)-4-[4-(difluoromethyl)-2-methyl-6-(1H-pyrazol-4-yl)indazol-3-yl]-6-methoxyphenyl]-[3-(difluoromethyl)-3-hydroxyazetidin-1-yl]methanone] | 8.3 | 10.9 | 2
COc1cc(-c2c3c(C#N)cc(-c4cn[nH]c4)cc3nn2C)cc(OC(F)F)c1C(=O)N1CC(O)(C(F)(F)F)C1 [Example 70, 3-[3-(difluoromethoxy)-4-[3-hydroxy-3-(trifluoromethyl)azetidin-1-carbonyl]-5-methoxyphenyl]-2-methyl-6-(1H-pyrazol-4-yl)indazole-4-carbonitrile] | 15.3 | 11.2 | 3.7
COc1cc(-c2c3c(C#N)cc(-c4cnn(C)c4)cc3nn2C)cc(OC(F)F)c1C(N)=O [Example 73, 4-[4-cyano-2-methyl-6-(1-methylpyrazol-4-yl)indazol-3-yl]-2-(difluoromethoxy)-6-methoxybenzamide] | 17.4 | 3.8 | 6.5
COc1cc(-c2c3c(C#N)cc(-c4cnn(CC5CS(=O)(=O)C5)c4)cc3nn2C)cc(OC(F)F)c1C(=O)NCC1(F)CC1 [Example 74, 4-[4-cyano-6-[1-[(1,1-dioxothietan-3-yl)methyl]pyrazol-4-yl]-2-methylindazol-3-yl]-2-(difluoromethoxy)-N-[(1-fluorocyclopropyl)methyl]-6-methoxybenzamide] | 8.4 | 2.6 | 6.1
COc1cc(-c2c3c(C#N)cc(-c4cnn(Cc5ncco5)c4)cc3nn2C)cc(OC(F)F)c1C(=O)NCC1(F)CC1 [Example 75] | 14.8 | 2.7 | 13.3
COc1cc(-c2c3c(C#N)cc(-c4cnn(CC5(F)COC5)c4)cc3nn2C)cc(OC(F)F)c1C(=O)NCC1(F)CC1 [Example 76, 4-[4-cyano-6-[1-[(3-fluorooxetan-3-yl)methyl]pyrazol-4-yl]-2-methylindazol-3-yl]-2-(difluoromethoxy)-N-[(1-fluorocyclopropyl)methyl]-6-methoxybenzamide] | 17.6 | 5.3 | 11.7
COc1cc(-c2c3c(C#N)cc(-c4cnn(C)c4)cc3nn2C)cc2c1C(=O)NCC2C (stereo not drawn) [Example 77, 3-(8-methoxy-4-methyl-1-oxo-3,4-dihydro-2H-isoquinolin-6-yl)-2-methyl-6-(1-methylpyrazol-4-yl)indazol-4-carbonitrile] | 11.8 | 5.2 | 10.1
COc1cc(-c2c3c(C#N)cc(-c4cnn(CC5CCOC5)c4)cc3nn2C)cc(OC(F)F)c1C(=O)NCC1(F)CC1 (stereo not drawn) [Example 78, 4-[4-cyano-2-methyl-6-[1-(oxolan-3-ylmethyl)pyrazol-4-yl]indazol-3-yl]-2-(difluoromethoxy)-N-[(1-fluorocyclopropyl)methyl]-6-methoxybenzamide] | 12.6 | 5.4 | 6.7
COc1cc(-c2c3c(C#N)cc(-c4cnn(CC5CCCO5)c4)cc3nn2C)cc(OC(F)F)c1C(=O)NCC1(F)CC1 (stereo not drawn) [Example 79, 4-[4-cyano-2-methyl-6-[1-(oxolan-2-ylmethyl)pyrazol-4-yl]indazol-3-yl]-2-(difluoromethoxy)-N-[(1-fluorocyclopropyl)methyl]-6-methoxybenzamide] | 12.5 | 6.8 | 8.1
COc1cc(-c2c3c(C#N)cc(-c4cnn(CC5CCO5)c4)cc3nn2C)cc(OC(F)F)c1C(=O)NCC1(F)CC1 (stereo not drawn) [Example 80, 4-[4-cyano-2-methyl-6-[1-(oxetan-2-ylmethyl)pyrazol-4-yl]indazol-3-yl]-2-(difluoromethoxy)-N-[(1-fluorocyclopropyl)methyl]-6-methoxybenzamide] | 16.5 | 8.7 | 10.1
COc1cc(-c2c3c(C#N)cc(-c4cnn(CC5CCS5(=O)=O)c4)cc3nn2C)cc(OC(F)F)c1C(=O)NCC1(F)CC1 (stereo not drawn) [Example 81, 4-[4-cyano-6-[1-[(1,1-dioxothietan-2-yl)methyl]pyrazol-4-yl]-2-methylindazol-3-yl]-2-(difluoromethoxy)-N-[(1-fluorocyclopropyl)methyl]-6-methoxybenzamide] | 13.3 | 7.3 | 10.6
COc1cc(-c2c3c(C#N)cc(-c4cnn(CC5CCCS5(=O)=O)c4)cc3nn2C)cc(OC(F)F)c1C(=O)NCC1(F)CC1 (stereo not drawn) [Example 82, 4-[4-cyano-6-[1-[(1,1-dioxothiolan-2-yl)methyl]pyrazol-4-yl]-2-methylindazol-3-yl]-2-(difluoromethoxy)-N-[(1-fluorocyclopropyl)methyl]-6-methoxybenzamide] | 16 | 7.5 | 16.7
COc1cc(-c2c3c(C#N)cc(-c4cnn(CC5(O)CC5)c4)cc3nn2C)cc(OC(F)F)c1C(=O)NCC1(F)CC1 [Example 83, 4-[4-cyano-6-[1-[(1-hydroxycyclopropyl)methyl]pyrazol-4-yl]-2-methylindazol-3-yl]-2-(difluoromethoxy)-N-[(1-fluorocyclopropyl)methyl]-6-methoxybenzamide] | 10.5 | 8.1 | 10.2
COc1cc(-c2c3c(C#N)cc(-c4cnn(CC5(O)CCC5)c4)cc3nn2C)cc(OC(F)F)c1C(=O)NCC1(F)CC1 [Example 84, 4-[4-cyano-6-[1-[(1-hydroxycyclobutyl)methyl]pyrazol-4-yl]-2-methylindazol-3-yl]-2-(difluoromethoxy)-N-[(1-fluorocyclopropyl)methyl]-6-methoxybenzamide] | 13.6 | 11 | 12.5
COc1cc(-c2c3c(C(F)F)cc(-c4cnn(C)c4)cc3nn2C)cc(OC(F)F)c1C(N)=O [Example 87, 2-(difluoromethoxy)-4-[4-(difluoromethyl)-2-methyl-6-(1-methylpyrazol-4-yl)indazol-3-yl]-6-methoxybenzamide] | 18.5 | 14.6 | 4.3
COc1cc(-c2c3c(C(F)F)cc(-c4cnn(C[C@H](C)O)c4)cc3nn2C)cc(OC(F)F)c1C(=O)N[C@@H]1CC1(F)F [Example 89, N-[(1R)-2,2-difluorocyclopropyl]-2-(difluoromethoxy)-4-[4-(difluoromethyl)-6-[1-[(2S)-2-hydroxypropyl]pyrazol-4-yl]-2-methylindazol-3-yl]-6-methoxybenzamide] | 11 | 12 | 2.3
COc1cc(-c2c3c(C#N)cc(-c4cnn(CCC(C)(C)O)c4)cc3nn2C)cc(OC(F)F)c1C(=O)NCC1(F)CC1 [Example 90] | 17.8 | 10.4 | 7.9
